Data published in paper PMC6268108, “Design, Practical Synthesis, and Biological Evaluation of Novel 6-(Pyrazolylmethyl)-4-quinoline-3-carboxylic Acid Derivatives as HIV-1 Integrase Inhibitors” (Molecules, 2012).

How the values were obtained:
[1] = target: T1, HIV-1 integrase (Human immunodeficiency virus type 1 group M subtype B, UniProt P04585); assay: HIV-1 integrase strand transfer (ST) activity assay; assay type: biochemical; details: 1 h; read-out: IC50 (inhibition of strand transfer)
T1 construct: pre-incubated with 800 ng integrase at 37.8 °C in the reaction buffer
Description: A HIV-1 integrase strand transfer (ST) activity assay was carried out to test the inhibition effectiveness of our compounds as described previously with some minor modifications. Compounds diluted in DMSO were pre-incubated with 800 ng integrase at 37.8 °C in the reaction buffer in the absence of Mn^2+ for 10 min. Subsequently, 1.5 pmol donor DNA and 9 pmol target DNA were added and the reaction was initiated by the addition of 10 mmol/L Mn^2+ into the final reaction volume. The reactions were carried out at 37.8 °C for 1 h and subsequent detection procedure was applied to detect the assay signals.

SMILES | inhibition at 100 µg/mL [1] [%] | melting point [°C]
Cc1cc(C)n(Cc2ccc3[nH]cc(C(=O)O)c(=O)c3c2)n1 [Compound 11a, 6-((3,5-Dimethyl-1H-pyrazol-1-yl)methyl)-4-oxo-1,4-dihydroquinoline-3-carboxylic acid] | < 50 | 254 to 256
Cc1nn(Cc2ccc3[nH]cc(C(=O)O)c(=O)c3c2)c(C)c1Cl [Compound 11b, 6-((4-Chloro-3,5-dimethyl-1H-pyrazol-1-yl)methyl)-4-oxo-1,4-dihydroquinoline-3-carboxylic acid] | < 50 | 263 to 265
Cc1nn(Cc2ccc3[nH]cc(C(=O)O)c(=O)c3c2)c(C)c1Br [Compound 11c, 6-((4-Bromo-3,5-dimethyl-1H-pyrazol-1-yl)methyl)-4-oxo-1,4-dihydroquinoline-3-carboxylic acid] | < 50 | 253 to 256
Cc1cc(C)n(Cc2ccc3c(c2)c(=O)c(C(=O)O)cn3CC(O)CO)n1 (stereo not drawn) [Compound 12a, 1-(2,3-Dihydroxypropyl)-6-((3,5-dimethyl-1H-pyrazol-1-yl)methyl)-4-oxo-1,4-dihydroquinoline-3-carboxylic acid] | < 50 | 187 to 189
Cc1nn(Cc2ccc3c(c2)c(=O)c(C(=O)O)cn3CC(O)CO)c(C)c1Cl (stereo not drawn) [Compound 12b, 1-(2,3-Dihydroxypropyl)-6-((4-chloro-3,5-dimethyl-1H-pyrazol-1-yl)methyl)-4-oxo-1,4-dihydro-quinoline-3-carboxylic acid] | < 50 | 278 to 280
Cc1nn(Cc2ccc3c(c2)c(=O)c(C(=O)O)cn3CC(O)CO)c(C)c1Br (stereo not drawn) [Compound 12c, 1-(2,3-Dihydroxypropyl)-6-((4-bromo-3,5-dimethyl-1H-pyrazol-1-yl)methyl)-4-oxo-1,4-dihydroquino-line-3-carboxylic acid] | < 50 | 267 to 269
Cc1cc(C)n(Cc2ccc3c(c2)c(=O)c(C(=O)O)cn3CC(=O)O)n1 [Compound 13a, 1-(Carboxymethyl)-6-((3,5-dimethyl-1H-pyrazol-1-yl)methyl)-4-oxo-1,4-dihydroquinoline-3-carboxylic acid] | < 50 | > 300
Cc1nn(Cc2ccc3c(c2)c(=O)c(C(=O)O)cn3CC(=O)O)c(C)c1Cl [Compound 13b, 1-(Carboxymethyl)-6-((4-chloro-3,5-dimethyl-1H-pyrazol-1-yl)methyl)-4-oxo-1,4-dihydroquinoline-3-carboxylic acid] | < 50 | 292 to 295
Cc1nn(Cc2ccc3c(c2)c(=O)c(C(=O)O)cn3CC(=O)O)c(C)c1Br [Compound 13c, 1-(Carboxymethyl)-6-((4-bromo-3,5-dimethyl-1H-pyrazol-1-yl)methyl)-4-oxo-1,4-dihydro-quinoline-3-carboxylic acid] | < 50 | 278 to 280
Cc1cc(C)n(Cc2ccc3c(c2)c(=O)c(C(=O)O)cn3CCCS)n1 [Compound 14a, 1-(3-Mercaptopropyl)-6-((3,5-dimethyl-1H-pyrazol-1-yl)methyl)-4-oxo-1,4-dihydroquinoline-3-carboxylic acid] | < 50 | 225 to 226
Cc1nn(Cc2ccc3c(c2)c(=O)c(C(=O)O)cn3CCCS)c(C)c1Cl [Compound 14b, 1-(3-Mercaptopropyl)-6-((4-chloro-3,5-dimethyl-1H-pyrazol-1-yl)methyl)-4-oxo-1,4-dihydro-quinoline-3-carboxylic acid] | < 50 | 238 to 240
Cc1nn(Cc2ccc3c(c2)c(=O)c(C(=O)O)cn3CCCS)c(C)c1Br [Compound 14c, 6-((4-Bromo-3,5-dimethyl-1H-pyrazol-1-yl)methyl)-1-(3-mercaptopropyl)-4-oxo-1,4-dihydroquinoline-3-carboxylic acid] | < 50 | 231 to 233
Cc1cc(C)n(Cc2ccc3c(c2)c(=O)c(C(=O)O)cn3Cc2ccc(F)cc2)n1 [Compound 15a, 1-(4-Fluorobenzyl)-6-((3,5-dimethyl-1H-pyrazol-1-yl)methyl)-4-oxo-1,4-dihydro-quinoline-3-carboxylic acid] | < 50 | 271 to 273
Cc1nn(Cc2ccc3c(c2)c(=O)c(C(=O)O)cn3Cc2ccc(F)cc2)c(C)c1Cl [Compound 15b, 1-(4-Fluorobenzyl)-6-((4-chloro-3,5-dimethyl-1H-pyrazol-1-yl)methyl)-4-oxo-1,4-dihydro-quinoline-3-carboxylic acid] | < 50 | 239 to 241
Cc1nn(Cc2ccc3c(c2)c(=O)c(C(=O)O)cn3Cc2ccc(F)cc2)c(C)c1Br [Compound 15c, 1-(4-Fluorobenzyl)-6-((4-bromo-3,5-dimethyl-1H-pyrazol-1-yl)methyl)-4-oxo-1,4-dihydro-quinoline-3-carboxylic acid] | < 50 | 255 to 257
Cc1cc(C)n(Cc2ccc3c(c2)c(=O)c(C(=O)O)cn3Cc2ccc([N+](=O)[O-])cc2)n1 [Compound 16a, 1-(4-Nitrobenzyl)-6-((3,5-dimethyl-1H-pyrazol-1-yl)methyl)-4-oxo-1,4-dihydro-quinoline-3-carboxylic acid] | < 50 | 274 to 276
Cc1nn(Cc2ccc3c(c2)c(=O)c(C(=O)O)cn3Cc2ccc([N+](=O)[O-])cc2)c(C)c1Cl [Compound 16b, 1-(4-Nitrobenzyl)-6-((4-chloro-3,5-dimethyl-1H-pyrazol-1-yl)methyl)-4-oxo-1,4-dihydroquinoline-3-carboxylic acid] | < 50 | 282 to 284
Cc1nn(Cc2ccc3c(c2)c(=O)c(C(=O)O)cn3Cc2ccc([N+](=O)[O-])cc2)c(C)c1Br [Compound 16c, 1-(4-Nitrobenzyl)-6-((4-bromo-3,5-dimethyl-1H-pyrazol-1-yl)methyl)-4-oxo-1,4dihydroquinoline-3-carboxylic acid] | < 50 | 266 to 268
